The results in this text go back to patent publication US5677459A, “Methods for the preparation of modulators of acetylcholine receptors” (Sibia Neurosciences, Inc., priority 1995, dated 1997).

Counter-ions that a name gives are not always drawn. Like-named read-outs stand apart in the source and are kept apart here. Some results are limits rather than exact numbers.

Test [1] deals with ^3 H-Dopamine release, rat striatal slices. Kind of test: Ligand-stimulated ^3 H-dopamine release from rat striatal slices. In kind it is cell-based. To be noted: Rattus norvegicus, read-out: % of Nicotine Response, ^3 H-Dopamine, Striatum. As to the method:
(§1) Measurement of ^3 H-dopamine release from rat striatal slices was performed according to the method of Sacaan et al. (J. Neurochem. 59:245 (1992)). Male Sprague-Dawley rats (250-300 g) were decapitated and the striata or olfactory tubercles dissected quickly on a cold glass surface. The tissue was chopped to a thickness of 300 μm with a McIlwain tissue chopper. After chopping again at right angles the tissue was dispersed and incubated for 10 min. at 37° C. in oxygenated Kreb's buffer. ^3 H-Dopamine (40 Ci/mmol, NEN- Dupont, Boston, Mass.) was added (50 nM) and the tissue was incubated for 30 min. in Kreb's buffer containing 10 μM pargyline and 0.5 mM ascorbic acid. Aliquots of the minced tissue were then transferred to chambers of a Brandel Superfusion system in which the tissue was supported on Whatman GF/B filter discs. The tissue was then superfused with buffer at a constant flow rate of 0.3 ml/min by means of a Brandel peristaltic pump. The perfusate was collected in plastic scintillation vials in 3-min fractions, and the radioactivity was estimated by scintillation spectrophotometry. The superfusate for the first 120 min was discarded. After two baseline fractions had been collected, the superfusion buffer was switched to fresh buffer with or without compound of interest. At the end of the experiment the filter and the tissue were removed, and the radiolabeled neurotransmitter content was estimated after extraction into scintillation fluid. The fractional efflux of radiolabeled neurotransmitter was estimated as the amount of radioactivity in the perfusate fraction relative to the total amount in the tissue.
(§2) Results of studies of the effects of an invention compound (as compared to the effect of nicotine) on the release of neurotransmitters from rat brain slices are presented in Table II. Results presented in Part A of the Table are expressed as the percent fractional release and results presented in Part B of the Table are expressed as a percentage, relative to nicotine response.

Test [2] deals with T1, nicotinic acetylcholine receptor (Rattus norvegicus, UniProt P09483+P12390).
T1 construct: the brains removed and the cerebral cortex dissected on ice; from tissue; host or cells: cerebral cortex synaptic membranes of male Sprague-Dawley rats
As to the kind of experiment: ^3 H-Nicotine binding/displacement, rat cerebral membranes. As to the method:
^3 H-Nicotine binding to rat cerebral membranes was performed according to modifications of the method of Flyn and Mash (J. Neurochem. 47:1948 (1986)). ^3 H-Nicotine (80 ci/mmol; New England Nuclear Corporation, Boston, Mass.) was used as the ligand for nicotinic acetylcholine receptor binding assays. All other reagents were purchased from the Sigma Chemical Co. (St. Louis, Mo.).
Male Sprague-Dawley rats (250-400 gm) were sacrificed by decapitation, the brains removed and the cerebral cortex dissected on ice. Synaptic membranes were prepared by homogenizing the cortical tissue in 20 volumes of ice-cold modified Tris buffer (50 mM Tris pH 7.4, 120 mM NaCl, 5 mM KCl, 2 mM EDTA, 1 mM PMSF) with a polytron (20 sec at setting 5-6) followed by centrifugation (15 min at 5,000×g) at 4° C. The resultant pellet was rehomogenized and centrifuged twice. The final pellet was resuspended in ice-cold assay buffer (50 mM Tris pH 7.4, 120 mM NaCl, 5 mM KCl, 2 mM CaCl2, 1 mM MgCl2) at a concentration of membrane equivalent to 1 gm wet weight cortex per 10 ml buffer. After protein determination the final membrane preparation was diluted with buffer to 3 mg protein/mi. This membrane preparation was used in either the fresh state or frozen (-70° C.) then thawed.
The binding assay is performed manually using 96-well plates, or using a Biomek automated work station (Beckman Instrument Co.). ^3 H-Nicotine was diluted in assay buffer to give a final concentration of 1.9 nM. The Biomek automated work station was programmed to automatically transfer 750 μl of assay buffer with ^3 H-nicotine, 230 μl of membrane preparation and 20 μl of solution containing the compound of interest in assay buffer, DMSO, ethanol:DMSO (1:1) or appropriate vehicle to the 96-well plate. Atropine was added to the incubation buffer at a final concentration of 3 μM to block binding to muscarinic acetylcholine receptor sites. The plates were maintained on ice for 60 min and the tissue-bound radioactivity was separated from the free by rapid filtration in a Brandel Harvester onto GF/C filters presoaked in 0.5% polyethyleneimine for at least 2 hr. The filters were washed with 4×2 ml of ice-cold assay buffer and filters were transferred to vials to which 4 ml of scintillation cocktail was added. The radioactivity was measured in a LS-6500 Beckman Liquid Scintillation Counter in an autodpm mode. Data were analyzed bylog-logit transformation or non-linear regression analysis (e.g., employing GraphPad Prism, available from GraphPad Software, San Diego, Calif.) to give IC50 values. Non-specific binding was defined by 10 μM cytisine.

In test [3] the target is muscarinic acetylcholine receptors. As to the kind of experiment: ^3 H-QNB (quinuclidinyl benzilate) binding/displacement, rat cerebral membranes.
Test [4] concerns ^3 H-Norepinephrine release, rat hippocampus slices. As to the kind of experiment: Ligand-stimulated ^3 H-norepinephrine release from rat hippocampus slices. In kind it is cell-based. To be noted: for % of Nicotine Response, ^3 H-Norepinephrine, Hippocampus: 300 μM, nicotine 300 μM = 100; for Emax at 300 µM: Rattus norvegicus, nicotine 300 μM = 100, read-out: % of Nicotine Response, ^3 H-Norepinephrine, Hippocampus. As to the method: as §1
Following essentially the same procedure as set forth above, the amount of ^3 H-norepinephrine released from rat hippocampus, thalamus and prefrontal cortex slices superfused with buffer containing (or lacking) compounds of interest was also measured.
as §2

In the next test the test system is rats. Kind of test: Locomotor activity assay. In kind it is in vivo, rat (male Sprague-Dawley). To be noted: Rattus norvegicus, sc, 20 mg/kg, s.c. As to the method:
This assay can be used to assess the primary effect of a compound on general motor activity. A decrease in locomotor activity is indicative of a possible sedative effect on the animal, whereas an increase in locomotor activity is indicative of a stimulant effect on the animal.
Locomotor activity of rats (male Sprague-Dawley (Harlan) weighing 200-250 gm) was measured for 2 hrs in photocell cages immediately after administration of the invention compound. Prior to the test day, the animals were placed in the activity cages for 3 hrs to familiarize them with the experimental environment. On the test day, the animals were placed in the photocell cages and then injected with compound 1.5 hrs later.
The photocell cages were standard rodent cages (30 cm×20 cm×40 cm) with four infrared beams crossing the long axis. The animals were under no motivational constraints and were free to move around. Movements from one infrared beam to another (ambulation) were called "crossover"; successive interruptions of the same beam (vertical and other movements such as grooming) were called "general activity."

[5] abbreviates: ^3 H-QNB 60 pM, rat cerebral membranes.
Setting [6] is: ^3 H-nicotine 1.9 nM, rat cerebral membranes, read-out: IC50, Nicotine.
Where [7] appears, read: compounds at 300 μM, nicotine 10 μM = 100.

T1 sequence (P09483 31-630): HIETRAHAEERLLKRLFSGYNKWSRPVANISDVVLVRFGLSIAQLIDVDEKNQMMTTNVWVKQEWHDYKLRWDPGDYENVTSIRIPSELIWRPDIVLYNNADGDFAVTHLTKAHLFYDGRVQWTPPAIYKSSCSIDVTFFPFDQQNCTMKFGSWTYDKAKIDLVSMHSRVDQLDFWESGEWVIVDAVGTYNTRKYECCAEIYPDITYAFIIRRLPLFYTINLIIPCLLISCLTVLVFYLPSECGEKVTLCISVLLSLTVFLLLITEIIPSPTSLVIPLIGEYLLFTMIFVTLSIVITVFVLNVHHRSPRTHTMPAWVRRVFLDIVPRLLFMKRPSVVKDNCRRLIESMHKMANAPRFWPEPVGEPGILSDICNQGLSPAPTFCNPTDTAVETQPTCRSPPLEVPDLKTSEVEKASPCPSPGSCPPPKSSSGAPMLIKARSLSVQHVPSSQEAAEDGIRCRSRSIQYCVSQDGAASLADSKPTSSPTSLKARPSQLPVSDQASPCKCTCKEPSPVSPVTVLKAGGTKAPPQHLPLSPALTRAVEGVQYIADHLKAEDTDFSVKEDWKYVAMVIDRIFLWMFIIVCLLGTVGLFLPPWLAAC
T1 sequence (P12390 25-500): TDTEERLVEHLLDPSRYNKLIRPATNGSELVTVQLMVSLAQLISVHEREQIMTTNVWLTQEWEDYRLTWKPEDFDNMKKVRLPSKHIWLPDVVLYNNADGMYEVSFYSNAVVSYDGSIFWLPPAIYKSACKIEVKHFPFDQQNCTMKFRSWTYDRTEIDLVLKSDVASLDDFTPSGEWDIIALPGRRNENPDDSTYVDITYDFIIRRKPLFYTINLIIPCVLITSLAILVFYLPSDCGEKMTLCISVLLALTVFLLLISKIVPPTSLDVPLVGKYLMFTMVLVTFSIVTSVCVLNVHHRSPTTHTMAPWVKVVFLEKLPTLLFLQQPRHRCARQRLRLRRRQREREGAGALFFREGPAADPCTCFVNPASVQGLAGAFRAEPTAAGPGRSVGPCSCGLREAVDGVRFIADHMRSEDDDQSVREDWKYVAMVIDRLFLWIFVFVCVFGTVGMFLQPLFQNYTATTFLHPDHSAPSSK

`C#Cc1cncc(C2CCCN2C)c1` (single isomer, unassigned) [5-Ethynyl-3-(1-methyl-2-pyrrolidinyl)pyridine di-p-toluoyl-L-tartrate]: in test [1] (compound at 300 μM, Nicotine concentration was 300 μM), the Emax at 300 µM amounted to 155%. Besides, the half-maximal inhibitory concentration (IC50) in test [2] (IC50, Nicotine) came out at 0.0026 µM.

Turning to `C#Cc1cncc(C2CCC(=O)N2C)c1` (stereo not shown) [A = C(O); R^7 = CH3; R^5 = 5-(1-ethynyl), 5-Ethynyl-3-(1-methyl-5-pyrrolidin-2-onyl)pyridine], the IC50 in test [3] (setting [5]) and in test [2] (setting [6]) was over 100 µM each time.

On to `C#Cc1cncc(C2CCCN2C)c1` (single isomer, unassigned) [R^5 = 5-(1-ethynyl) Di-p-toluoyl-D-tartrate] [5-ethynyl-3-(1-methyl-2-pyrrolidinyl)pyridine di-p-toluoyl-D-tartrate], for which the IC50 in test [3] (setting [5]) came to 4.7 µM. In addition, the “% of Nicotine Response, ^3 H-Norepinephrine, Hippocampus” value in test [4] came out at 3.7%.

Turning to `CC(O)C#Cc1cncc(C2CCCN2C)c1` (stereo not shown) [R^5 = 5-(2-hydroxy-3-butynyl), 5-[4-(2-Hydroxy-3-butynyl)]-3-(1-methyl-2-pyrrolidinyl)pyridine fumarate], the results for the Emax at 300 µM in test [1] (setting [7]) and in test [4] were 98% and 30.5%, respectively. The IC50 in test [3] (setting [5]) is over 100 µM; in test [2] (setting [6]), 0.011 µM.

On to `CC#Cc1cncc(C2CCCN2C)c1` (stereo not shown) [R^5 = 5-(1-propynyl), 5-[1-(1-Propynyl)]-3-(1-methyl-2-pyrrolidinyl)pyridine fumarate], for which the IC50 was over 100 µM in test [3] (setting [5]) and 0.029 µM in test [2] (setting [6]).

`COCC#Cc1cncc(C2CCCN2C)c1` (stereo not shown) [R^5 = 5-(1-methoxy-2-propynyl), 5-[3-(1-Methoxy-2-propynyl)]-3-(1-methyl-2-pyrrolidinyl)pyridine fumarate]: the Emax at 300 µM in test [1] (setting [7]) amounted to 61.7%; in test [4], 7.4%. In addition, the IC50 is over 100 µM in test [3] (setting [5]) and 0.0026 µM in test [2] (setting [6]).

Turning to `CN1CCCC1c1cncc(C#CCCCCCCC#Cc2cncc(C3CCCN3C)c2)c1` (stereo not shown) [R^5 = See below*, 1,10-Bis-5-[3-(1-methyl-2-pyrrolidinyl)pyridine]-deca-1,9-diyne fumarate], the IC50 worked out at 7.5 µM in test [3] and 0.0052 µM in test [2] (IC50, Nicotine, ^3 H-nicotine 1.9 nM, rat cerebral membranes).

Take `CN1CCCC1c1cncc(C#CCO)c1` (stereo not shown) [R^5 = 5-(1-hydroxy-2-propynyl)]: the results for the Emax at 300 µM in test [1] (setting [7]) and in test [4] were 157% and 39%, respectively. For the same compound, the values for the IC50 in test [3] (setting [5]) and in test [2] (setting [6]) were over 100 µM and 0.0036 µM, respectively.

Take `C#Cc1cncc(C2CCCN2)c1` (stereo not shown) [R^7 = H; R^5 = 5-(1-ethynyl), 5-Ethynyl-3-(1-H-2-pyrrolidinyl)pyridine fumarate]: the figures for the Emax at 300 µM in test [1] (setting [7]) and in test [4] were 61.7% and 13.4%, respectively. Moreover, the IC50 worked out at 8.9 µM in test [3] (setting [5]) and 0.058 µM in test [2] (setting [6]).

Regarding `CN1CCCC1c1cncc(C#CCCO)c1` (stereo not shown) [R^5 = 5-(1-hydroxy-3-butynyl)], the figures for the Emax at 300 µM in test [1] (setting [7]) and in test [4] were 100% and 36.3%, respectively. The IC50 in test [3] (setting [5]) was over 100 µM; in test [2] (setting [6]), 0.006 µM.

With `CN1CCCC1c1cncc(C#CC(C)(C)O)c1` (stereo not shown), the Emax at 300 µM turned out to be 118% in test [1] (setting [7]) and 18.3% in test [4]. The IC50 was over 100 µM in test [3] (setting [5]) and 0.038 µM in test [2] (setting [6]).

As to `CCCC#Cc1cncc(C2CCCN2C)c1` (stereo not shown) [R^5 = 5-(1-pentynyl), 5-[1-(1-Pentynyl)]-3-(1-methyl-2-pyrrolidinyl)pyridine fumarate], in test [1] (setting [7]), the Emax at 300 µM was found to be 27.7%. For the same compound, the IC50 in test [3] (setting [5]) was 39 µM; in test [2] (setting [6]), 0.0042 µM.

Turning to `CN1CCCC1c1cncc(C#Cc2ccccc2)c1` (stereo not shown) [R^5 = phenylethynyl, 5-Phenylethynyl-3-(1-methyl-2-pyrrolidinyl)pyridine fumarate], the change in vivo at 20 mg/kg was 7% with rats (1 h, 0-60 min, read-out: Ambulation (cross overs), percent of change from control); 3% in the test on rats (1 h, 0-60 min, read-out: General Activity (beam breaks), percent of change from control); -16% with rats (2 h, 60-120 min, read-out: Ambulation (cross overs), percent of change from control); -11% in the test on rats (2 h, 60-120 min, read-out: General Activity (beam breaks), percent of change from control).

As to `CN(C)CC#Cc1cncc(C2CCCN2C)c1` (stereo not shown) [R^5 = 5-(1-dimethylamino-2-propynyl), 5-[3-(1-Dimethylamino-2-propynyl)]-3-(1-methyl-2-pyrrolidinyl)pyridine fumarate], the Emax at 300 µM in test [1] (setting [7]) is 235%. For the same compound, the IC50 amounted to 100 µM in test [3] (setting [5]) and 0.025 µM in test [2] (setting [6]).

On to `Fc1ccc(-c2cncc(C3CCCCN3)c2)cc1` (stereo not shown) [5-(4-Fluorophenyl)-3-(2-piperidinyl)pyridine fumarate], for which the IC50 in test [3] (setting [5]) was 24.9 µM; in test [2] (setting [6]) it was 0.49 µM.

As for `C#Cc1cncc(C2CCCN2C)c1` (single isomer, unassigned) [5-ethynyl-3-(1-methyl-2-pyrrolidinyl)pyridine di-p-toluoyl-D-tartrate], the Emax at 300 µM in test [1] (setting [7]) came out at 33%. This compound also displayed an IC50 in test [2] (IC50, Nicotine) of 0.078 µM.

For `C#Cc1cncc(C2CCCN2C)c1` (single isomer, unassigned) [R^5 = 5-(1-ethynyl) Di-p-toluoyl-L-tartrate] [5-Ethynyl-3-(1-methyl-2-pyrrolidinyl)pyridine di-p-toluoyl-L-tartrate], in test [4], the “% of Nicotine Response, ^3 H-Norepinephrine, Hippocampus” value is 17.4%.

For orientation: IC50 means the concentration that inhibits the measured activity by half.
